Reference: ChEMBL document CHEMBL5316299, “Discovery of Novel Drug-like PHGDH Inhibitors to Disrupt Serine Biosynthesis for Cancer Therapy” (J Med Chem, 2023)

Tests used:
MCF-10A = test: Antiproliferative activity against human MCF-10A cells assessed as reduction in cell viability measured for 72 hrs by CCK-8 assay; format: functional, cell-based
MDA-MB-468 = test: Antiproliferative activity against human MDA-MB-468 cells expressing PHGDH assessed as reduction in cell viability measured for 72 hrs by CCK-8 assay; format: functional, cell-based; settings: MDA-MB-468, 72 h
[1] = target: T1, D-3-phosphoglycerate dehydrogenase (Homo sapiens, UniProt O43175); test: Inhibition of PHGDH (unknown origin) preincubated for 30 mins followed by substrate addition and measured after 5 mins
T1 sequence (O43175 whole entry): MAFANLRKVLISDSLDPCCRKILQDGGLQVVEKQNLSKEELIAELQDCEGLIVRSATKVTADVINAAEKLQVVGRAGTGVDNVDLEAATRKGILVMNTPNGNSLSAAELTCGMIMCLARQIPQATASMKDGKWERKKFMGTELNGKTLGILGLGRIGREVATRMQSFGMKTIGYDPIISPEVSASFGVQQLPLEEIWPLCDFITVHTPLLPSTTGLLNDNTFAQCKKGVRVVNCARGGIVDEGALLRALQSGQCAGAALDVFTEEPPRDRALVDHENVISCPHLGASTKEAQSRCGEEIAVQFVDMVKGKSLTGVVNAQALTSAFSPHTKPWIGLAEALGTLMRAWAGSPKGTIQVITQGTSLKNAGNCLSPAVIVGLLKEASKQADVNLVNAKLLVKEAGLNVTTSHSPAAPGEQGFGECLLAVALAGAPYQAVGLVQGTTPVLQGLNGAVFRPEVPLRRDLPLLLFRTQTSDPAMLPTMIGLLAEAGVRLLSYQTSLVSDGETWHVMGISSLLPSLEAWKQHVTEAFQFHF

[2] = Microsomal stability in mouse liver microsomes assessed as intrinsic clearance measured upto 60 mins by HPLC-MS/MS analysis; format: ADME, Microsome; settings: 1 h
[3] = Microsomal stability in rat liver microsomes assessed as intrinsic clearance measured upto 60 mins by HPLC-MS/MS analysis; format: ADME, Microsome; settings: 1 h
[4] = Microsomal stability in human liver microsomes assessed as half life measured upto 60 mins by HPLC-MS/MS analysis; format: ADME, Microsome
[5] = Microsomal stability in rat liver microsomes assessed as half life measured upto 60 mins by HPLC-MS/MS analysis; format: ADME, Microsome
[6] = Microsomal stability in human liver microsomes assessed as intrinsic clearance measured upto 60 mins by HPLC-MS/MS analysis; format: ADME, Microsome; settings: 1 h
[7] = Microsomal stability in mouse liver microsomes assessed as half life measured upto 60 mins by HPLC-MS/MS analysis; format: ADME, Microsome
HCC827 = test: Antiproliferative activity against human HCC827 cells expressing PHGDH assessed as reduction in cell viability measured for 72 hrs by CCK-8 assay; format: functional, cell-based; settings: HCC827, 72 h
HCT-116 = test: Antiproliferative activity against human HCT-116 cells expressing PHGDH assessed as reduction in cell viability measured for 72 hrs by CCK-8 assay; format: functional, cell-based; settings: HCT-116, 72 h
BT-20 = test: Antiproliferative activity against human BT-20 cells expressing PHGDH assessed as reduction in cell viability measured for 72 hrs by CCK-8 assay; format: functional, cell-based; settings: BT-20, 72 h
PC-9 = test: Antiproliferative activity against human PC-9 cells expressing PHGDH assessed as reduction in cell viability measured for 72 hrs by CCK-8 assay; format: functional, cell-based; settings: PC-9, 72 h
NCI-H1975 = test: Antiproliferative activity against human NCI-H1975 cells expressing PHGDH assessed as reduction in cell viability measured for 72 hrs by CCK-8 assay; format: functional, cell-based; settings: NCI-H1975, 72 h
[8] = target: T1, D-3-phosphoglycerate dehydrogenase; test: Inhibition of wild type PHGDH (unknown origin) preincubated for 30 mins followed by substrate addition and measured after 5 mins
[9] = target: D-3-phosphoglycerate dehydrogenase (Homo sapiens, UniProt O43175, D175A); test: Inhibition of PHGDH D175A mutant (unknown origin) preincubated for 30 mins followed by substrate addition and measured after 5 mins
D-3-phosphoglycerate dehydrogenase (Homo sapiens, UniProt O43175, D175A), sequence (O43175 2-533 D175A limits assumed): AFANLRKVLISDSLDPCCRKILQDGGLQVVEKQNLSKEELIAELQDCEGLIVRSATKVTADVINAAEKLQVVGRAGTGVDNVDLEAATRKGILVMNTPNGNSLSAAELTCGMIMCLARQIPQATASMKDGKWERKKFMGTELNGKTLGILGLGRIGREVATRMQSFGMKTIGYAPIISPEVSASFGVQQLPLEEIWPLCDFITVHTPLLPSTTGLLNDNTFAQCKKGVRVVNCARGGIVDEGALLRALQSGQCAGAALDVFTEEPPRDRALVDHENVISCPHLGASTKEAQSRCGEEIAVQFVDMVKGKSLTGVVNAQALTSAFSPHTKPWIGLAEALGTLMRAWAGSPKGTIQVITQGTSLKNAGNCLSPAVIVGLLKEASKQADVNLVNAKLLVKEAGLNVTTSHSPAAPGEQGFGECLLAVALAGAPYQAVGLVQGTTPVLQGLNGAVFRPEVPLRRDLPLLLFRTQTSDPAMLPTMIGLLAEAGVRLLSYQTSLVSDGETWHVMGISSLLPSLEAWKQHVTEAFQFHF

[10] = substrate: CC(=O)c1cccc(NS(=O)(=O)c2ccc(C(=O)Nc3nc(-c4cccc(F)c4)cs3)cc2)c1; settings: Homo sapiens; dose 3.1 µM, time 35.0 min
[11] = substrate: CC(=O)c1cccc(NS(=O)(=O)c2ccc(C(=O)Nc3nc(-c4cccc(F)c4)cs3)cc2)c1; settings: Homo sapiens; dose 6.3 µM, time 35.0 min
[12] = substrate: CC(=O)c1cccc(NS(=O)(=O)c2ccc(C(=O)Nc3nc(-c4cccc(F)c4)cs3)cc2)c1; settings: Homo sapiens; dose 25.0 µM, time 35.0 min
[13] = substrate: CC(=O)c1cccc(NS(=O)(=O)c2ccc(C(=O)Nc3nc(-c4cccc(F)c4)cs3)cc2)c1; settings: Homo sapiens; dose 6.3 µM, time 35.0 min; remark: listed apart in the source
[14] = substrate: CC(=O)c1cccc(NS(=O)(=O)c2ccc(C(=O)Nc3nc(-c4cccc(F)c4)cs3)cc2)c1; settings: Homo sapiens; dose 12.5 µM, time 35.0 min
[15] = substrate: CC(=O)c1cccc(NS(=O)(=O)c2ccc(C(=O)Nc3nc(-c4cccc(F)c4)cs3)cc2)c1; settings: Homo sapiens; dose 12.5 µM, time 35.0 min; remark: listed apart in the source
[16] = substrate: CC(=O)c1cccc(NS(=O)(=O)c2ccc(C(=O)Nc3nc(-c4cccc(F)c4)cs3)cc2)c1; settings: Homo sapiens; dose 25.0 µM, time 35.0 min; remark: listed apart in the source

## O=C(Nc1nc(-c2ccccc2)cs1)c1ccc(S(=O)(=O)Nc2cccc(CO)c2)cc1
MCF-10A
  IC50: > 100 µM
MDA-MB-468
  IC50: 10.1 µM
[1]
  IC50: 7.74 µM

## COc1cccc(-c2csc(NC(=O)c3ccc(S(=O)(=O)Nc4cccc(C(C)=O)c4)cc3)n2)c1
[2]
  CLH: 2471.9 mL/min/g
[3]
  CLH: 2500.2 mL/min/g
MCF-10A
  IC50: 100 µM
[4]
  half-life: 0.85 min
MDA-MB-468
  IC50: 4.8 µM
[5]
  half-life: 0.84 min
[1]
  IC50: 4.8 µM
[6]
  CLH: 2485.8 mL/min/g
[7]
  half-life: 0.85 min

## O=C(Nc1nc(-c2ccccc2)cs1)c1ccc(S(=O)(=O)Nc2cccc(N3CCOCC3)c2)cc1
MCF-10A
  IC50: > 100 µM
MDA-MB-468
  IC50: > 100 µM
[1]
  IC50: 7.04 µM

## O=C(Nc1nc(-c2ccccc2)cs1)c1ccc(S(=O)(=O)Nc2ccccc2)cc1
MCF-10A
  IC50: > 100 µM
MDA-MB-468
  IC50: 11.6 µM
[1]
  IC50: 6.5 µM

## CC(=O)c1cccc(NS(=O)(=O)c2ccc(C(=O)Nc3nc(-c4cccc(C)c4)cs3)cc2)c1
[2]
  CLH: 835.6 mL/min/g
[3]
  CLH: 2378.4 mL/min/g
MCF-10A
  IC50: 100 µM
[4]
  half-life: 1 min
MDA-MB-468
  IC50: 3 µM
[5]
  half-life: 0.9 min
[1]
  IC50: 2.4 µM
[6]
  CLH: 1589.7 mL/min/g
[7]
  half-life: 2.5 min

## O=C(Nc1nc(-c2ccccc2)cs1)c1ccc(S(=O)(=O)Nc2cccc(CCO)c2)cc1
MCF-10A
  IC50: 93.4 µM
MDA-MB-468
  IC50: 8.1 µM
[1]
  IC50: 7.49 µM

## CC(=O)c1cccc(NS(=O)(=O)c2ccc(C(=O)Nc3cc(-c4ccccc4)cs3)cc2)c1
[1]
  IC50: 12.9 µM

## COc1ccccc1-c1csc(NC(=O)c2ccc(S(=O)(=O)Nc3cccc(C(C)=O)c3)cc2)n1
[2]
  CLH: 153 mL/min/g
[3]
  CLH: 838.8 mL/min/g
MCF-10A
  IC50: > 100 µM
[4]
  half-life: 26 min
MDA-MB-468
  IC50: 5.5 µM
[5]
  half-life: 2.5 min
[1]
  IC50: 2.2 µM
[6]
  CLH: 82 mL/min/g
[7]
  half-life: 13.7 min

## CN(C)CCNS(=O)(=O)c1ccc(C(=O)Nc2nc(-c3ccccc3)cs2)cc1
[1]
  IC50: 15.7 µM

## O=C(Nc1nc(-c2ccccc2)cs1)c1ccc(S(=O)(=O)NCCN2CCOCC2)cc1
[1]
  IC50: 10.8 µM

## COC(=O)CS(=O)(=O)c1ccc([C@@H](CO)NC(=O)c2cc3c(Cl)cc(C)cc3n2C)cc1
MCF-10A
  IC50: > 100 µM
MDA-MB-468
  IC50: 27.9 µM
[1]
  IC50: 0.162 µM

## O=C(O)c1cccc(NS(=O)(=O)c2ccc(C(=O)Nc3nc(-c4ccccc4)cs3)cc2)c1
MCF-10A
  IC50: > 100 µM
MDA-MB-468
  IC50: > 100 µM
[1]
  IC50: 3.59 µM

## COCCNS(=O)(=O)c1ccc(C(=O)Nc2nc(-c3ccccc3)cs2)cc1
[1]
  IC50: 17.8 µM

## O=C(Nc1nc(-c2ccccc2)cs1)c1ccc(S(=O)(=O)Cl)cc1
[1]
  IC50: 18.5 µM

## O=C(Nc1nc(-c2ccccc2)cs1)c1ccc(S(=O)(=O)N2CCC(C(=O)O)CC2)cc1
[1]
  IC50: 13 µM

## CC(=O)c1cccc(NS(=O)(=O)c2ccc(C(=O)Nc3nc(-c4ccccc4F)cs3)cc2)c1
MCF-10A
  IC50: 62.9 µM
MDA-MB-468
  IC50: 65.4 µM
[1]
  IC50: 3.8 µM

## CC(=O)N1CCC(NS(=O)(=O)c2ccc(C(=O)Nc3nc(-c4ccccc4)cs3)cc2)CC1
MCF-10A
  IC50: > 100 µM
MDA-MB-468
  IC50: 72.3 µM
[1]
  IC50: 6.81 µM

## CC(=O)c1cccc(NS(=O)(=O)c2ccc(C(=O)Nc3nc(-c4cccc(O)c4)cs3)cc2)c1
HCC827
  IC50: 55.7 µM
MDA-MB-468
  IC50: 69.3 µM
HCT-116
  IC50: 84.7 µM
BT-20
  IC50: 69.3 µM
PC-9
  IC50: > 100 µM
NCI-H1975
  IC50: 89.7 µM

## O=C(Nc1nc(-c2ccccc2)cs1)c1ccc(S(=O)(=O)O)cc1
MDA-MB-468
  IC50: > 100 µM
[1]
  IC50: 12.6 µM

## CC(=O)c1cccc(NS(=O)(=O)c2ccc(C(=O)Nc3nc(-c4ccc(F)cc4)cs3)cc2)c1
MCF-10A
  IC50: 100 µM
MDA-MB-468
  IC50: 11.7 µM
[1]
  IC50: 2.6 µM

## O=C(O)CNS(=O)(=O)c1ccc(C(=O)Nc2nc(-c3ccccc3)cs2)cc1
[1]
  IC50: 15.8 µM

## Cc1cc(C)nc(NS(=O)(=O)c2ccc(C(=O)Nc3nc(-c4ccccc4)cs3)cc2)n1
MCF-10A
  IC50: 86.5 µM
MDA-MB-468
  IC50: 30.1 µM
[1]
  IC50: 3.19 µM

## CC(=O)c1cccc(NS(=O)(=O)c2ccc(C(=O)Nc3nc(-c4ccc(F)c(F)c4)cs3)cc2)c1
[1]
  IC50: 17.2 µM

## CNC(=O)c1cccc(NS(=O)(=O)c2ccc(C(=O)Nc3nc(-c4ccccc4)cs3)cc2)c1
MCF-10A
  IC50: > 100 µM
MDA-MB-468
  IC50: 15 µM
[1]
  IC50: 4.96 µM

## Cc1cc(Cl)c2cc(C(=O)N[C@H](CO)c3ccc(S(=O)(=O)CC(=O)O)cc3)n(C)c2c1
[8]
  IC50: 0.1 µM
MCF-10A
  IC50: > 100 µM
MDA-MB-468
  IC50: > 100 µM
[1]
  IC50: 0.106 µM
[9]
  IC50: > 3 µM

## CN1CCN(CCNS(=O)(=O)c2ccc(C(=O)Nc3nc(-c4ccccc4)cs3)cc2)CC1
[1]
  IC50: 11.4 µM

## CC(=O)c1cccc(NS(=O)(=O)c2ccc(C(=O)Nc3nc(-c4ccc(F)cc4F)cs3)cc2)c1
[1]
  IC50: 6.7 µM

## O=C(Nc1nc(-c2ccccc2)cs1)c1ccc(S(=O)(=O)N2CCC(CCO)CC2)cc1
[1]
  IC50: 12.2 µM

## CC(=O)c1cccc(NS(=O)(=O)c2ccc(C(=O)Nc3nc(-c4ccccc4)cs3)cc2)c1
MCF-10A
  IC50: > 100 µM
MDA-MB-468
  IC50: 8.4 µM
[1]
  IC50: 5.33 µM

## O=C(O)Cc1cccc(NS(=O)(=O)c2ccc(C(=O)Nc3nc(-c4ccccc4)cs3)cc2)c1
MCF-10A
  IC50: > 100 µM
MDA-MB-468
  IC50: > 100 µM
[1]
  IC50: 7.89 µM

## CN1CCN(c2cccc(NS(=O)(=O)c3ccc(C(=O)Nc4nc(-c5ccccc5)cs4)cc3)c2)CC1
MCF-10A
  IC50: 25.5 µM
MDA-MB-468
  IC50: 9.7 µM
[1]
  IC50: 6.16 µM

## CCOC(=O)c1sc(NC(=O)c2ccco2)c(SC#N)c1C
MCF-10A
  IC50: 57.2 µM
MDA-MB-468
  IC50: 20.9 µM

B1: D-3-phosphoglycerate dehydrogenase (Homo sapiens), O43175 (protein)
chain: T1 sequence (O43175 whole entry)
[10]
  Km: 33.4 µM
[11]
  Km: 510 µM
[12]
  Km: 72.9 µM
[13]
  Km: 51.6 µM
[14]
  Km: 495 µM
[15]
  Km: 64 µM
[16]
  Km: 448 µM
